Measured values: US4719297A, “Acylphosphine compounds and their use as photoinitiators” (priority 1981, dated 1988)

Assays:
[1] = Photopolymerization of monomer emulsion, properties of resulting polymer dispersions (Table 5)
Procedure: A monomer emulsion was prepared from 50 parts of methyl acrylate, 50 parts of ethyl acrylate, 1.3 parts of a 40% strength C15 -paraffin sulfonate, 1.3 parts of an adduct of isooctylphenol with 25 units of ethylene oxide (20% strength) and 210 parts of water in a conventional mixing unit.
This emulsion was introduced into a 1 l glass flask provided with an internal thermometer and a stirrer, and was freed from oxygen by twice evacuating the flask and gassing the emulsion with nitrogen. X parts of the photoinitiator in 6.7 parts of water were added, and the reaction vessel was then exposed for 60 minutes to light from a high pressure mercury vapor lamp of Type HQL/R 400 W from Osram, located 30 cm above the vessel. The beginning of polymerization was evident from an increase in the temperature. The amounts of photoinitiator employed and the properties of the resulting polymer dispersions are summerized in Table 5, photoinitiator 4 (cf. Table 1) being compared with photoinitiator VI (described in U.S. Pat. No. 4.257,859).

[2] = Hardening activity of UP resin A under UV light, temperature/time curve (Table 2); conditions: 0.2% compound
Procedure: (§1) To measure the hardening activity, the temperature curve for the unsaturated polyester resin (UP resin) was recorded during exposure to UV light. […] To avoid heat losses during the exposure to UV light, the lid was embedded in rigid expanded polyurethane foam. The UV light source used comprised 5 fluorescent tubes (TLAK 40 W/05 from Philips) side by side, at a distance of 8.5 cm from the UP resin surface.
(§2) The hardening time HT25° C.-T.sbsb.max and the maximum hardening temperature Tmax achieved were obtained, as characteristic parameters for the hardening activity, from the recorded temperature/time curves. The hardening time is the interval in which the sample temperature increases from 25° C. to Tmax.
(§3) The Examples and Comparative Examples were carried out using the following unsaturated polyester resins:
Resin A was a 65% strength solution, in styrene, of an unsaturated polyester of maleic acid, o-phthalic acid, ethylene glycol and propylene 1,2-glycol in the molar ratio of 1:2:2.3:0.70, the solution being stabilized with 0.01% of hydroquinone.
(§4) The hardening activity of the novel compounds 1 to 16 (cf. Table 1) was compared with the properties of the following compounds: […]

[3] = Hardening activity of UP resin C under UV light, temperature/time curve (Table 2); conditions: 0.2% compound
Procedure: as §1, §2, §3
Resin C was a 66% strength solution, in styrene, of an unsaturated polyester of maleic acid, o-phthalic acid and propylene 1,2-glycol in the molar ratio of 1:0.5:1.5, the solution being stabilized with 0.01% of hydroquinone.
as §4

[4] = Hardening activity of UP resin B under UV light, temperature/time curve (Table 2); conditions: 0.2% compound
Procedure: as §1, §2, §3
Resin B was a 67% strength solution, in styrene, of an unsaturated polyester of maleic acid, tetrahydrophthalic acid and diethylene glycol in the molar ratio of 1:0.5:1.5, the solution being stabilized with 0.01% of hydroquinone.
as §4

[5] = Minimum exposure time for faultless reproduction of the 3% tonality on photopolymerizable printing plate (Table 7); conditions: 2 parts photoinitiator; UV about 3,300 μW/cm^2
Procedure: 60 parts by weight of a 1:1:1 copolyamide consisting of PA-6, PA-6.6 and PA-6.13, 30 parts by weight of ethylene glycol bis-(N-methylolacrylamide) ether, 10 parts by weight of benzenesulfonic acid N-(n-butyl)-amide, 150 parts by weight of methanol, 20 parts by weight of water, 0.02 part by weight of a chromium complex dye (CI No. 12,195), 0.3 part by weight of potassium N-nitrosocyclohexylhydroxylamine and 2 parts by weight of the photoinitiator given in Table 7 were dissolved at about 70° C. The photopolymerizable material was brought to a solids content of about 65% by distilling off part of the solvent and was then cast, at 60° C., on to a strip of steel sheet provided with an adhesive, and drying was effected in a drying oven for about 2 hours at 80° C. The resulting photopolymerizable printing plate contained a 0.5 mm thick layer with a solids content of about 95%.
Using a test negative which had, inter alia, 54 screen lines, per centimeter, of 3% tonality, the plate was exposed to a UV light intensity of about 3,300 μW/cm^2 on a flat-plate exposure unit equipped with superactinic fluorescent tubes. The unexposed parts of the plate which were protected from the UV light by the opaque image elements of the negative were then washed out in a spray washer for 5 minutes at 30° C. and under a spray pressure of 5 bar, using an ethanol/water mixture containing 80% of ethanol. The plate was thereafter dried for 6 minutes at 110° C. The minimum exposure time required for faultless reproduction of the 3% tonality was measured, and the results for various photoinitiators are summarized in Table 7.

[6] = Shelf life of UP resin A containing a photoinitiator, stored at 60° C. (Table 3); assay type: physicochemical; conditions: 0.2% initiator, dark
Procedure: (§5) To test the shelf life, 6.6 ml of each of the UP resins A, B and C (cf. Example 5) with an initiator content of 0.2% were introduced into brown sample bottles, and the closed bottles were stored at 60° C. At intervals of about 12 hours, the bottles were turned to determine whether gel particles had formed. As a measure of the shelf life, Table 3 gives the maximum storage time at which gel particles were still not observed.
(§6) In addition to the comparative compounds I, II and III, compound V below was also tested: V 2,4,6-trimethylbenzoyldiphenylphosphine oxide as described in U.S. Pat. No. 4,265,723.
(§7) The numbering scheme of the compounds in Table 3 is based on that of Table 1.

[7] = Shelf life of UP resin B containing a photoinitiator, stored at 60° C. (Table 3); assay type: physicochemical; conditions: 0.2% initiator, dark
Procedure: as §5, §6, §7

[8] = Shelf life of UP resin C containing a photoinitiator, stored at 60° C. (Table 3); assay type: physicochemical; conditions: 0.2% initiator, dark
Procedure: as §5, §6, §7

[9] = Shelf life of resins containing the compounds, overall comparison; assay type: physicochemical; conditions: Table 3, in words
Procedure: as §5, §6

[10] = 1.7 parts X employed, 60 min exposure

Row | Structure (SMILES) | hardening time HT 25°-Tmax [2] | maximum hardening temperature Tmax [2] [°C] | hardening time HT 25°-Tmax [3] | maximum hardening temperature Tmax [3] [°C] | hardening time HT 25°-Tmax [4] | maximum hardening temperature Tmax [4] [°C] | Shelf life [6] [h] | shelf life of resins compared with compounds II, III and V [9] | other results
1 | C[N+]1(CC(O)(C(=O)c2ccccc2)c2ccccc2)CCCC1 (stereo not drawn) [VI] |  |  |  |  |  |  |  |  | polymerization outcome ([1]; 0.04 parts X employed): no polymerization; Fikentscher K value [1, 10]: 146.1; Residual monomers, ethyl acrylate [1, 10]: 0.012%; Residual monomers, methyl acrylate [1, 10]: 0.036%; Solids content [1, 10]: 30.8%; initiation of photopolymerization at very low starting concentrations ([1]; very low starting concentrations, in words): no longer initiates polymerization
2 | Cc1cc(C)c(C(=O)P(=O)(O)c2ccccc2)c(C)c1 [Compound 5] | 5/38 | 118 |  |  |  |  |  |  | 
3 | COC(OC)(C(=O)c1ccccc1)c1ccccc1 [III, benzil dimethyl ketal, reference compound] | 8/00 | 114 | 8/30 | 122 | 9/45 | 119 |  |  | Minimum exposure time required for reproducing the 3% tonality [5]: 165 s
4 | Cc1cc(C)c(C(=O)P(=O)(OC(C)C)c2ccccc2)c(C)c1 (stereo not drawn) [II, isopropyl 2,4,6-trimethylbenzoylphenylphosphinate, reference compound] | 6/45 | 107 | 6/08 | 120 | 5/15 | 128 | 140 |  | Shelf life [7]: 155 h; Shelf life [8]: 120 h
5 | Cc1cc(C)c(C(=O)P(=O)(O)c2ccccc2)c(C)c1 [Compound 13] | 6/08 | 115 | 5/23 | 121 | 5/30 | 126 |  |  | 
6 | Cc1cc(C)c(C(=O)P(=O)(O)c2ccccc2)c(C)c1 [Compound 15] | 7/15 | 113 | 7/30 | 109 | 8/00 | 119 |  |  | 
7 | Cc1cc(C)c(C(=O)P(=O)(O)c2ccccc2)c(C)c1 [Compound 11] | 5/23 | 118 | 5/15 | 120 | 4/30 | 124 | 180 | substantially superior | shelf life of resins compared with resins containing I [9]: not significantly different; Shelf life [7]: 155 h; Shelf life [8]: 204 h
8 | Cc1cc(C)c(C(=O)P(=O)(O)c2ccccc2)c(C)c1 [Compound 6] | 5/53 | 115 |  |  |  |  |  |  | 
9 | Cc1cc(C)c(C(=O)P(=O)(O)c2ccccc2)c(C)c1 [Compound 9] | 5/53 | 110 | 5/45 | 129 | 4/45 | 125 | 180 | substantially superior | shelf life of resins compared with resins containing I [9]: not significantly different; Shelf life [7]: 140 h; Shelf life [8]: 180 h
10 | Cc1cc(C)c(C(=O)P(=O)(O)c2ccccc2)c(C)c1 [Compound 16] | 5/15 | 115 |  |  |  |  |  |  | 
11 | Cc1cc(C)c(C(=O)P(=O)(O)c2ccccc2)c(C)c1 [Compound 14] | 5/30 | 122 | 5/38 | 123 | 4/53 | 118 | 180 | substantially superior | shelf life of resins compared with resins containing I [9]: not significantly different; Shelf life [7]: 155 h; Shelf life [8]: 204 h; Minimum exposure time required for reproducing the 3% tonality [5]: 110 s
12 | Cc1cc(C)c(C(=O)P(=O)(O)c2ccccc2)c(C)c1 [Compound 8, Calcium bis-(2,4,6-trimethylbenzoylphenylphosphinate)] | 5/53 | 114 |  |  | 6/00 | 130 |  |  | 
13 | Cc1cc(C)c(C(=O)P(=O)(O)c2ccccc2)c(C)c1 [Compound 17] | 5/38 | 120 |  |  |  |  | 270 | substantially superior | 
14 | Cc1cc(C)c(C(=O)P(=O)(O)c2ccccc2)c(C)c1 [Compound 18] |  |  |  |  |  |  | 270 | substantially superior | 
